# Measurements published in ChEMBL document CHEMBL1127262, “Novel HIV01 protease inhibitors containing A -hydroxy sulfide isostere” (Bioorg Med Chem Lett, 1994).
# Experiments:
# [1] = molecular target: Human immunodeficiency virus type 1 protease (Human immunodeficiency virus 1, UniProt Q72874); assay: Compound was tested for inhibitory activity against isolated HIV-1 protease
# MT2 = assay: Compound was tested for whole cell antiviral activity against MT2 cell lines; type: functional, cell-based; conditions: Homo sapiens
# CCRF-CEM = assay: Compound was tested for whole cell antiviral activity against CEM cell lines; type: functional, cell-based; conditions: Homo sapiens
# [2] = molecular target: Human immunodeficiency virus type 1 protease (Human immunodeficiency virus 1) (UniProt Q72874); assay: Percent inhibition against isolated HIV-1 protease at a concentration of 1 ug/ml
Structure (SMILES),IC50 [1],IC50 (MT2),IC50 (CCRF-CEM),inhibition [2]
CC(C)(C)NC(=O)c1ccccc1SC[C@@H](O)[C@H](Cc1ccccc1)NC(=O)[C@H](CC(N)=O)NC(=O)c1ccc2ccccc2n1,0.0134 µM,0.41 µg/mL,0.48 µg/mL,
CC(C)(C)NC(=O)c1ccccc1S(=O)(=O)C[C@@H](O)[C@H](Cc1ccccc1)NC(=O)[C@H](CC(N)=O)NC(=O)c1ccc2ccccc2n1,0.509 µM,,,
CC(C)(C)NC(=O)c1ccccc1SC[C@@H](O)[C@H](Cc1ccccc1)NC(=O)[C@H](Cc1c[nH]cn1)NC(=O)c1ccc2ccccc2n1,0.208 µM,,,
CC(C)(C)NC(=O)c1ccccc1SC[C@H](O)[C@H](Cc1ccccc1)NC(=O)[C@H](CC(N)=O)NC(=O)c1ccc2ccccc2n1,0.0561 µM,4.38 µg/mL,4.99 µg/mL,

# Other lines, results leading:
IC50 [1],IC50 (MT2),IC50 (CCRF-CEM),inhibition [2],Structure (SMILES)
,,,69%,CC(C)(C)NC(=O)c1ccccc1[S+]([O-])C[C@@H](O)[C@H](Cc1ccccc1)NC(=O)[C@H](CC(N)=O)NC(=O)c1ccc2ccccc2n1 (stereo in doubt; 16a)
,,,28%,CC(C)(C)NC(=O)c1ccccc1[S+]([O-])C[C@@H](O)[C@H](Cc1ccccc1)NC(=O)[C@H](CC(N)=O)NC(=O)c1ccc2ccccc2n1 (stereo in doubt; 16b)
,0.0317 µg/mL,0.0137 µg/mL,,CC(C)(C)NC(=O)c1ccccc1C[C@@H](O)[C@H](Cc1ccccc1)NC(=O)[C@H](CC(N)=O)NC(=O)c1ccc2ccccc2n1
